Data: patent US8362031B2, “Lonidamine analogues and treatment of polycystic kidney disease” (University of Kansas, priority 2004, dated 2013)
“Also recorded” adds a separate entry of the source.

How the values were obtained:
total ERK = test: Western blot of treated ADPKD cells; type: cell-based, human; settings: 50 uM for 48 h
Procedure: (§1) Gamendazole (GMZ) was tested to determine if treatment decreases Hsp90 client protein levels in ADPKD cells. Briefly, ADPKD cells were treated with 50 μM GMZ for 24, 48 or 72 hours. Proteins from 20 μg total cell lysate were separated by SDS-PAGE, transferred to a PVDF membrane and probed with antibodies against the Hsp90 client proteins ErbB2 (185 kD), and cdk4 (34 kD). […] GMZ decreased the total levels of these client proteins in ADPKD cells. A decrease in P-ERK correlates with the inhibition of cell proliferation by GMZ. […] The data also provides an indication that other lonidamine derivatives may be useful in therapies for PKD.

P-ERK = test: Western blot of treated ADPKD cells; type: cell-based, human; settings: 50 uM for 48 h, n=2
Procedure: as §1

rats [1] = test: Animal tolerance studies of GMZ; type: in vivo, rat
Source text: The parent compound of GMZ, Lonidamine, inhibits the chloride channel CFTR, interferes with cellular energy output and has been used as an anticancer drug. […] GMZ binds directly to Hsp90-beta and eukaryotic elongation factor eEF1A as shown by affinity chromatography and direct binding studies.

pcy mouse = test: In vivo treatment of the pcy mouse; settings: 1 mg/kg IP, three times weekly from 5-20 weeks of age, after 12 weeks of treatment
Source text: The Pkd1 gene is orthologous to the gene involved in ˜85% of human ADPKD cases. […] Biol Reprod. 78(6):1139-52 (2008). If so, it could be reducing the levels of the Hsp90 client proteins, CFTR and NKCC1, both important for cyst-filling chloride secretion. Evidence is shown here that NKCC1 protein levels were reduced by GMZ treatment of metanephric kidneys in organ culture. Evidence was also shown for decreased PCNA levels, which is consistent with a general decrease in cell proliferation in these kidneys in organ culture, due probably to Hsp90 inhibition. The efficacy of GMZ on inhibition of cyst growth in vivo is currently being tested in the pcy mouse, a mouse model of nephronophthisis-3 (NPHP3) which has a slowly progressive renal cystic disease. […] Accordingly, gamendazole inhibits cell proliferation and cAMP-stimulated cyst-like expansion (in metanephric organ cultures). The mechanisms may involve: a direct and rapid inhibition of forskolin-stimulated CFTR channel activity; inhibition of Hsp90 chaperone function leading to long-term reduction of NKCC1 protein levels; or reduction of PKD proliferation pathway components. Thus, GMZ appears to be a potent inhibitor of these two important processes involved in PKD pathogenesis.

ADPKD cells [2] = test: Wound-healing scratch assay (cell migration); type: cell-based, human
Procedure: Gamendazole (GMZ) was tested to determine if it inhibits cell migration. Briefly, ADPKD cells were plated on a 12-well cell culture plate in 5% FBS-containing medium and allowed to form a confluent monolayer. The monolayer was wounded using a P-200 pipette tip and the medium changed to include increasing concentrations of gamendazole. Images of three different fields per well were captured at 10× magnification immediately after wounding and at 4, 8 and 24 hours post-wounding. GMZ was tested at 0, 10, 50, and 100 uM. Area of the wound was measured at each time point using NIH Image J program. Percentage of wound closure was calculated by subtracting the area of the wound at any given time point from the 0 h wound area expressed as a percentage of the 0 h wound area. Statistical analysis was done to compare the GMZ-treated cells to untreated cells at each time point using One-way ANOVA and the Tukey HSD test for pair-wise comparisons.

Cdk4 = test: Western blot of treated ADPKD cells; type: cell-based, human; settings: 50 uM
Procedure: (§2) Gamendazole (GMZ) was tested to determine if treatment decreases Hsp90 client protein levels in ADPKD cells. Briefly, ADPKD cells were treated with 50 μM GMZ for 24, 48 or 72 hours. Proteins from 20 μg total cell lysate were separated by SDS-PAGE, transferred to a PVDF membrane and probed with antibodies against the Hsp90 client proteins ErbB2 (185 kD), and cdk4 (34 kD).

ErbB2 = test: Western blot of treated ADPKD cells; type: cell-based, human; settings: 50 uM
Procedure: as §2

ADPKD cells [3] = test: Phalloidin staining of the actin cytoskeleton; type: cell-based, human; settings: increasing concentrations
Procedure: To determine if gamendazole treatment alters actin cytoskeleton dynamics, ADPKD cells were stained with phalloidin and examined by fluorescence microscopy. […] Briefly, ADPKD cells or M-1 cortical collecting duct cells were plated in a 4-well chamber slide in 5% FBS-containing medium. After 24 hours, the cells were treated with increasing concentrations of GMZ. Cells were fixed using 4% paraformaldehyde and permeabilized with 0.2% Triton-X 100. Cells were then incubated for 20 min with TRITC-conjugated phalloidin, washed with PBS and mounted with DAPI-containing mounting medium. Images were captured at 10× (FIG. 13A) or 60× (FIG. 13B), using the same exposure settings for treated and untreated cells. […] Blue (internal staining) indicates DAPI-stained nuclei.

[4] = test system: ovarian (ID8), taxol-resistant ovarian (ID8), prostate (LNCaP and PC-3), kidney (293); test: Growth of cancer cell lines in vitro; type: cell-based; settings: all cell lines named
Procedure: When RC-MC-110 is added to a variety of cancer cells: ovarian (ID8), taxol-resistant ovarian (ID8), prostate (LNCaP and PC-3), kidney (293).

rats [5] = test: Toxicology: organs sectioned and examined after dosing; type: in vivo

Row | SMILES | total ERK levels (total ERK) | P-ERK levels (P-ERK) | histopathology (rats [1]; 25 mg/kg of IP dosage) | behavioral or body weight changes (rats [1]; rats, five days post-treatment) | Tolerability in the pcy mouse (pcy mouse) | cell migration (percentage of wound closure) (ADPKD cells [2]; 10, 50 and 100 uM, 4, 8 and 24 hours post-wounding) | wound closure (ADPKD cells [2]; even at low concentration (10 uM)) | levels of the Hsp90 client protein Cdk4 (Cdk4) | levels of the Hsp90 client protein ErbB2 (ErbB2) | Cell morphology, actin cytoskeleton (ADPKD cells [3]) | Growth of cancer cell lines in vitro [4] | Toxicology: liver, lung, pancreas, spleen, heart and kidney (histology) (rats [5]; 6 mg/kg, follow-up experiment, findings per animal) | Toxicology: liver, lung, pancreas, spleen, heart and kidney (histology) (rats [5]; 12 mg/kg, follow-up experiment, findings per animal) | Toxicology: liver, lung, pancreas, spleen, heart and kidney (histology) (rats [5]; 25 mg/kg, two animals examined, findings per animal) | Toxicology: liver, lung, pancreas, spleen, heart and kidney (histology) (rats [5]; 200 mg/kg, two animals examined, findings per animal) | Toxicology: liver, lung, pancreas, spleen, heart and kidney (histology) (rats [5]; oral 1.5 mg/kg, two animals, corn oil) | Toxicology: liver, lung, pancreas, spleen, heart and kidney (histology) (rats [5]; oral 1.5 mg/kg, two animals, corn oil, 1.5 mg/kg) | Toxicology: liver, lung, pancreas, spleen, heart and kidney (histology) (rats [5]; oral 6 mg/kg, 3 mg/kg, 1 mg/kg and 0.5 mg/kg, two animals from each dose level, corn oil)
1 | O=C(O)CCc1nn(Cc2ccc(Cl)cc2Cl)c2cc(C(F)(F)F)ccc12 [GMZ, 3-[1-(2,4-dichlorobenzyl)-6-trifluoromethyl-1H-indazol-3-yl]-propionic acid] | unchanged | 71.2 % of controls | no apparent histopathology in any organ | no evidence of behavioral or body weight changes | the treated mice appear to be tolerating GMZ | significant inhibition of cell migration at all concentrations of GMZ tested and at all time points | unable to accomplish wound closure | decreased levels | decreased levels | smaller, without leading edges and with less filamentous actin | – | – | – | – | – | – | – | –
2 | O=C(O)/C=C/c1nn(Cc2ccc(Cl)cc2Cl)c2cc(C(F)(F)F)ccc12 [RC-MC-110, trans 3-[1-(2,4-dichlorobenzyl)-6-trifluoromethyl-1H-indazol-3-yl]-acrylic acid] | – | – | – | – | – | – | – | – | – | – | inhibited by RC-MC-110 in a dose-dependent manner | The liver did have isolated, scattered, small necrotic patches, resembling what is often found in subacute hepatic necrosis | The liver did have isolated, scattered, small necrotic patches, resembling what is often found in subacute hepatic necrosis; also recorded: The liver contained small, patchy areas of necrosis resembling what is often described for subacute hepatic necrosis; also recorded: The lungs also had multiple, small hemorrhagic areas around the respiratory and terminal bronchioles | liver, lung, pancreas, spleen, heart and kidney all appear within normal limits | liver, lung, pancreas, spleen, heart and kidney all appear within normal limits | the liver showed a small number of randomly scattered, small necrotic patches, but was otherwise normal | The other animal receiving 1.5 mg/kg appeared normal | liver, lung, pancreas, spleen, heart and kidney all appeared within normal limits
